{
  "source": "patent US20090022803A1",
  "about": "“Oral Formulations For Delivery of Catecholic Butanes Including Ndga Compounds” (priority 2005, published 2009)",
  "test": "Stability of M4N formulations at room temperature (time to crystallized precipitation)",
  "assay_type": "physicochemical",
  "description": "A 10 mL solution of M4N at a concentration of about 10 mg/mL in 40% BP-β-CD was made as follows. About 10 mL of the 40% HP-β-CD solution were added to a glass beaker containing a stir bar. The beaker was placed on a magnetic plate and the stir bar was set to stir at medium speed. About […] of M4N were slowly added to the 40% HP-β-CD in the center of the beaker with the aid of a spatula. The M4N/40% HP-β-CD mixture was stirred for 2 hr or until all M4N was uniformly suspended without any clumps being present. The M4N/40% HP-β-CD mixture was optionally heated at 80° C. for about 30 min. (or longer if a larger volume of solution was desired, for example, 1 hr at 80° C. for 100 mL of the M4N/HP-β-CD mixture), or longer as needed to ensure complete dissolution of M4N. […] The final M4N/40% HP-β-CD solution was stored at room temperature and was kept protected from light. This process may be scaled up or down to obtain the requisite volume or concentration of M4N. Formulations containing M4N in other cyclodextrin solutions may be similarly made, such as, for example, by substituting HP-β-CD in the process described above with other cyclodextrins.\nA 100 mL solution of M4N at a concentration of about 25 mg/mL in PEG 300 was made as follows. About 100 mL of PEG 300 were added to a glass beaker containing a stir bar. The beaker was placed on a magnetic plate and the stir bar was set to stir at medium speed. About 2.5 g of M4N were slowly added to the PEG 300 in the center of the beaker with the aid of a spatula to prevent M4N from sticking to the beaker wall. The M4N/PEG 300 mixture was stirred for 24 hr or until all M4N had dissolved or was uniformly suspended without any clumps being present. The M4N/PEG 300 mixture was optionally heated at about 60° C. for about 30 min. (or longer if a larger volume of solution was desired, for example, 1 hr at 60° C. for 500 mL of the M4N/PEG 300 mixture), or longer as needed to ensure complete dissolution of M4N. […] If crystals formed, the M4N/PEG 300 solution could be heated again at 60° C. for about 1 hr, with stirring, on a hot magnetic plate until all M4N was dissolved back in solution. The final M4N/PEG 300 solution was stored at room temperature and was kept protected from light. This process may be scaled up or down to obtain the requisite volume or concentration of M4N. Formulations containing M4N in other PEGs may be similarly made, such as, for example, by substituting PEG 300 in the process described above with PEG 400 or PEG 400 monolaurate.\nFormulations containing M4N in other water-insoluble lipids combined with non-ionic, ionic or amphipathic surfactants or water-soluble organic solvents may be similarly made, such as, for example, by substituting sesame oil in the process described above with corn oil, olive oil, soybean oil, peppermint oil, or mineral oil and substituting Tween® 20 with Tween® 80, TPGS, lecithin, PEG 300, PEG 400, PEG 400 monolaurate, glycerol, PVP, PG, or other solubilizing agents, and combinations thereof. Stability in reference to the clear liquid solutions herein refers to the time it takes to form crystallized precipitation in solution. A stable solution is one that is clear and free of particulates for an extended period of time.",
  "data": [
    {"smiles": "COc1ccc(C[C@@H](C)[C@@H](C)Cc2ccc(OC)c(OC)c2)cc1OC", "note": "[Formulation M4N, meso-1,4-bis(3,4-dimethoxyphenyl)-2,3-dimethylbutane]", "values": [
      {"measurement": "Stability at Room Temperature", "setting": "M4N 1 mg/mL suspension in 50% HP-β-CD, 0.5% CMC", "value": ">7", "unit": "days"},
      {"measurement": "Stability Time at Room Temperature", "setting": "M4N 2.4 mg/mL, Sesame Oil, Tween ® 20 and Glycerol, 10% Oil emulsion in 90% saline", "value": "<1", "unit": "days"},
      {"measurement": "Stability Time at Room Temperature", "setting": "M4N 2.9 mg/mL, Sesame Oil and Tween ® 20, 10% Oil emulsion in 90% saline", "value": "<3", "unit": "days"},
      {"measurement": "Stability at Room Temperature", "setting": "M4N 3.13 mg/mL in 5% HP-β-CD, 12.5% PEG 300 (v/v)", "value": "<7", "unit": "days"},
      {"measurement": "Stability at Room Temperature", "setting": "M4N 4.17 mg/mL in 6.7% HP-β-CD, 16.7% PEG 300 (v/v)", "value": ">7", "unit": "days"},
      {"measurement": "Stability at Room Temperature", "setting": "M4N 6.25 mg/mL in 10% HP-β-CD, 25% PEG 300 (v/v)", "value": ">7", "unit": "days"},
      {"measurement": "Stability at Room Temperature", "setting": "M4N 10 mg/mL in 30% HP-β-CD", "value": "<3", "unit": "days"},
      {"measurement": "Stability at Room Temperature", "setting": "M4N 10 mg/mL in 32% HP-β-CD, 20% PEG 400 (v/v)", "value": ">7", "unit": "days"},
      {"measurement": "Stability at Room Temperature", "setting": "M4N 10 mg/mL in 50% HP-β-CD", "value": ">7", "unit": "days"},
      {"measurement": "Stability at Room Temperature", "setting": "M4N 10 mg/mL in 50% HP-β-CD in saline", "value": ">7", "unit": "days"},
      {"measurement": "Stability Time at Room Temperature", "setting": "M4N 10 mg/mL in Peppermint Oil", "value": ">3", "unit": "days"},
      {"measurement": "stable at room temperature", "setting": "M4N 10 mg/mL in Tween® 20", "value": "more than 7 days"},
      {"measurement": "stable at room temperature", "setting": "M4N 10 mg/mL in Tween® 80", "value": "more than 3 days"},
      {"measurement": "Stability at Room Temperature", "setting": "M4N 12.5 mg/mL in 12.5% HP-β-CD, 50% PEG 300 (v/v)", "value": "<1", "unit": "days"},
      {"measurement": "Stability at Room Temperature", "setting": "M4N 12.5 mg/mL in 12.5% HP-β-CD, 50% PEG 400 (v/v)", "value": "<1", "unit": "days"},
      {"measurement": "Stability at Room Temperature", "setting": "M4N 12.5 mg/mL in 15% HP-β-CD, 50% PEG 300 (v/v)", "value": "<7", "unit": "days"},
      {"measurement": "Stability at Room Temperature", "setting": "M4N 12.5 mg/mL in 15% HP-β-CD, 50% PEG 400 (v/v)", "value": "<3", "unit": "days"},
      {"measurement": "Stability at Room Temperature", "setting": "M4N 12.5 mg/mL in 20% HP-β-CD, 50% PEG 300 (v/v)", "value": ">7", "unit": "days"},
      {"measurement": "Stability at Room Temperature", "setting": "M4N 12.5 mg/mL in 20% HP-β-CD, 50% PEG 400 (v/v)", "value": "<7", "unit": "days"},
      {"measurement": "Stability at Room Temperature", "setting": "M4N 12.5 mg/mL in 30% HP-β-CD, 25% PEG 400 (v/v)", "value": ">7", "unit": "days"},
      {"measurement": "Stability at Room Temperature", "setting": "M4N 12.9 mg/mL in 23% HP-β-CD, 43% PEG 400 (v/v)", "value": ">7", "unit": "days"},
      {"measurement": "Stability at Room Temperature", "setting": "M4N 12.9 mg/mL in 23% HP-β-CD, 43 PEG 300 (v/v)", "value": ">7", "unit": "days"},
      {"measurement": "Stability at Room Temperature", "setting": "M4N 13.3 mg/mL in 27% HP-β-CD, 33% PEG 300 (v/v)", "value": ">7", "unit": "days"},
      {"measurement": "Stability at Room Temperature", "setting": "M4N 13.3 mg/mL in 27% HP-β-CD, 33% PEG 400 (v/v)", "value": ">7", "unit": "days"},
      {"measurement": "stable at room temperature", "setting": "M4N 20 mg/mL in Tween® 20", "value": "more than 7 days"},
      {"measurement": "Stability at Room Temperature", "setting": "M4N 20 mg/mL suspension in 50% HP-β-CD, 0.5% CMC", "value": ">7", "unit": "days"},
      {"measurement": "Stability Time at Room Temperature", "setting": "M4N 24.3 mg/mL in 75% Sesame Oil, 9% Tween ® 20, 16% Glycerol", "value": "<7", "unit": "days"},
      {"measurement": "Stability Time at Room Temperature", "setting": "M4N 29 mg/mL in 89% Sesame Oil, 11% Tween ® 20", "value": ">7", "unit": "days"},
      {"measurement": "Stability Time at Room Temperature", "setting": "M4N 40 mg/mL in 50% Peppermint Oil, 50% Tween ® 20", "value": ">3", "unit": "days"},
      {"measurement": "stable at room temperature", "setting": "M4N 40 mg/mL in Tween® 20", "value": "less than 3 days"},
      {"measurement": "Stability Time at Room Temperature", "setting": "M4N 50 mg/mL in Camillia Oil", "value": ">7", "unit": "days"},
      {"measurement": "Stability Time at Room Temperature", "setting": "M4N 50 mg/mL in Mineral Oil", "value": "<1", "unit": "days"},
      {"measurement": "stable at room temperature", "setting": "M4N 50 mg/mL in Tween® 80", "value": "less than 1 day"},
      {"measurement": "Stability Time at Room Temperature", "setting": "M4N 60 mg/mL in 50% Peppermint Oil, 50% Tween ® 20", "value": ">3", "unit": "days"},
      {"measurement": "Stability Time at Room Temperature", "setting": "M4N 60 mg/mL in Peppermint Oil", "value": "<3", "unit": "days"},
      {"measurement": "Stability at Room Temperature", "setting": "M4N 60 mg/mL suspension in 50% HP-β-CD, 0.5% CMC", "value": ">7", "unit": "days"},
      {"measurement": "stable at room temperature", "setting": "M4N 80 mg/mL in Tween® 20", "value": "less than 3 days"},
      {"measurement": "Stability Time at Room Temperature", "setting": "M4N 100 mg/mL in Peppermint Oil", "value": "<1", "unit": "days"},
      {"measurement": "Stability Time at Room Temperature", "setting": "M4N 125 mg/mL in Peppermint Oil", "value": "<1", "unit": "days"},
      {"measurement": "stability of the suspension at room temperature", "setting": "M4N in glycerol monooleate (Glymo), heated to 60° C., cooled", "value": "remained stable for two weeks"},
      {"measurement": "stable at room temperature", "setting": "M4N up to 60 mg/mL in 50% Tween® 20 and 50% PEG 400", "value": "more than 3 days"},
      {"measurement": "Stability Time at Room Temperature", "setting": "PEG 400 mono-laurate 100%, M4N 20 mg/mL", "value": ">3", "unit": "days"},
      {"measurement": "Stability Time at Room Temperature", "setting": "PEG 400 mono-laurate 100%, M4N 50 mg/mL", "value": "<1", "unit": "days"},
      {"measurement": "Stability Time at Room Temperature", "setting": "Propylene Glycol 100% (w/v), M4N 1 mg/mL", "value": "<1", "unit": "days"},
      {"measurement": "Stability Time at Room Temperature", "setting": "Propylene Glycol 100% (w/v), M4N 10 mg/mL", "value": "<1", "unit": "days"},
      {"measurement": "Stability Time at Room Temperature", "setting": "Propylene Glycol 100% (w/v), M4N 20 mg/mL", "value": "<1", "unit": "days"},
      {"measurement": "Stability at Room Temperature", "setting": "TPGS 20% (w/v), M4N 60 mg/ml, suspension", "value": ">3", "unit": "days"},
      {"measurement": "Stability at Room Temperature", "setting": "TPGS 20% (w/v), M4N 100 mg/ml, suspension", "value": ">3", "unit": "days"}
    ]}
  ]
}
